PubChem BioAssay AID248 (DTP/NCI, 2004)
Values joined by “and” are separate entries in the source; they are usually repeats but may differ in a detail not shown here. Identical values can stand only once. Inconclusive results and toxic doses are left out. No stated cut-off is given here; in the data, active means T/C of 150% or more; inactive means T/C below 125%.

Test system: L1210 leukemia ip in BDF1 mice, survival T/C
Test: NCI In Vivo Anticancer Drug Screen. Data for tumor model L1210 Leukemia (intraperitoneal) in B6D2F1 (BDF1) mice
Conditions: endpoint: mean survival time, higher = longer survival
Method in brief: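 Read-out is survival time, reported as the treated-group measurement over the vehicle-control measurement.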

[1] = dose: 100.0 mg/kg/injection, schedule: Q01DX001 (ip), vehicle: saline
[2] = dose: 200.0 mg/kg/injection, schedule: Q01DX001 (ip), vehicle: saline
[3] = dose: 400.0 mg/kg/injection, schedule: Q01DX001 (ip), vehicle: saline
[4] = dose: 25.0 mg/kg/injection, schedule: Q01DX009 (ip), vehicle: saline
[5] = dose: 50.0 mg/kg/injection, schedule: Q01DX009 (ip), vehicle: saline
[6] = dose: 100.0 mg/kg/injection, schedule: Q01DX009 (ip), vehicle: saline
[7] = dose: 100.0 mg/kg/injection, schedule: Q04DX003 (ip), vehicle: saline with Tween-80
[8] = dose: 200.0 mg/kg/injection, schedule: Q01DX009 (ip), vehicle: saline
[9] = dose: 200.0 mg/kg/injection, schedule: Q04DX003 (ip), vehicle: saline with Tween-80
[10] = dose: 400.0 mg/kg/injection, schedule: Q04DX003 (ip), vehicle: saline with Tween-80
[11] = dose: 100.0 mg/kg/injection, schedule: Q01DX009 (ip), vehicle: saline with Tween-80
[12] = dose: 200.0 mg/kg/injection, schedule: Q01DX009 (ip), vehicle: saline with Tween-80
[13] = dose: 25.0 mg/kg/injection, schedule: Q04DX003 (ip), vehicle: saline
[14] = dose: 50.0 mg/kg/injection, schedule: Q04DX003 (ip), vehicle: saline
[15] = dose: 100.0 mg/kg/injection, schedule: Q04DX003 (ip), vehicle: saline
[16] = dose: 200.0 mg/kg/injection, schedule: Q04DX003 (ip), vehicle: saline
[17] = dose: 100.0 mg/kg/injection, schedule: Q04DX002 (ip), vehicle: other
[18] = dose: 200.0 mg/kg/injection, schedule: Q04DX002 (ip), vehicle: other
[19] = dose: 400.0 mg/kg/injection, schedule: Q04DX002 (ip), vehicle: other

Measured: T/C

CC(CCC(=O)O)(NC(=O)c1ccc(NCc2ccc3nc(N)nc(N)c3c2)cc1)C(=O)O (stereo unspecified)
inactive: dose: 8.0 mg/kg/injection, schedule: Q01DX009 (ip), vehicle: saline 112 % of control | dose: 8.0 mg/kg/injection, schedule: Q04DX003 (ip), vehicle: saline 115 % of control | dose: 16.0 mg/kg/injection, schedule: Q01DX009 (ip), vehicle: saline 102 % of control | dose: 16.0 mg/kg/injection, schedule: Q04DX003 (ip), vehicle: saline 123 % of control | dose: 64.0 mg/kg/injection, schedule: Q04DX003 (ip), vehicle: saline 115 % of control | dose: 128.0 mg/kg/injection, schedule: Q04DX003 (ip), vehicle: saline 99 % of control
active: dose: 0.5 mg/kg/injection, schedule: Q01DX009 (ip), vehicle: saline 150 % of control | dose: 1.0 mg/kg/injection, schedule: Q01DX009 (ip), vehicle: saline 163 % of control and 176 % of control | dose: 4.0 mg/kg/injection, schedule: Q01DX009 (ip), vehicle: saline 163 % of control

Clc1ccc(SCNCc2ccccc2)cc1
inactive: [1] 100 % of control | [2] 94 % of control | [3] 96 % of control

O=C(C(Cl)Cl)N(O)c1ccccc1OCc1ccccc1
inactive: dose: 100.0 mg/kg/injection, schedule: Q01DX001 (ip), vehicle: saline with Tween-80 98 % of control | dose: 200.0 mg/kg/injection, schedule: Q01DX001 (ip), vehicle: saline with Tween-80 112 % of control | dose: 400.0 mg/kg/injection, schedule: Q01DX001 (ip), vehicle: saline with Tween-80 98 % of control

CC12NC(=O)NC1(C)NC(=O)N2 (stereo unspecified)
inactive: [4] 89 % of control | [5] 95 % of control | [6] 96 % of control and 89 % of control | [7] 96 % of control | [8] 100 % of control | [9] 102 % of control | [10] 96 % of control

Cc1cc(O)c(C=O)c(C)c1O
inactive: dose: 100.0 mg/kg/injection, schedule: Q01DX009 (ip), vehicle: Klucel (hydroxypropylcellulose) (HPC) 110 % of control | dose: 200.0 mg/kg/injection, schedule: Q01DX009 (ip), vehicle: Klucel (hydroxypropylcellulose) (HPC) 117 % of control

CCOCCOC(=O)c1ccc(C#N)cc1
inactive: [1] 100 % of control | [2] 97 % of control | [3] 97 % of control

COCC(COC)CC1CO1 (stereo unspecified)
inactive: dose: 50.0 mg/kg/injection, schedule: Q01DX009 (ip), vehicle: saline with Tween-80 96 % of control | [11] 100 % of control | [12] 96 % of control

CCCCNC(=O)OCC(C)(CCC)COC(N)=O (stereo unspecified)
inactive: [4] 101 % of control | [13] 95 % of control | [5] 101 % of control | [14] 95 % of control | [6] 109 % of control | [15] 101 % of control | [8] 104 % of control | [16] 95 % of control | dose: 400.0 mg/kg/injection, schedule: Q01DX009 (ip), vehicle: saline 103 % of control | dose: 400.0 mg/kg/injection, schedule: Q04DX003 (ip), vehicle: saline 95 % of control

O=C(Nc1ccc(NC2=NCCN2)cc1)c1cc(C(=O)Nc2ccc(NC3=NCCN3)cc2)cc([N+](=O)[O-])c1
inactive: dose: 1.87 mg/kg/injection, schedule: Q01DX Z (ip), vehicle: saline 113 % of control | dose: 3.75 mg/kg/injection, schedule: Q01DX Z (ip), vehicle: saline 109 % of control | dose: 7.5 mg/kg/injection, schedule: Q01DX Z (ip), vehicle: saline 115 % of control | dose: 15.0 mg/kg/injection, schedule: Q01DX Z (ip), vehicle: methylcellulose (MC) 94 % of control | dose: 15.0 mg/kg/injection, schedule: Q01DX Z (ip), vehicle: saline 105 % of control

CCOC(=O)NCS(=O)(=O)c1ccccc1-c1ccccc1
inactive: dose: 100.0 mg/kg/injection, schedule: Q04DX003 (ip), vehicle: Klucel (hydroxypropylcellulose) (HPC) 93 % of control | dose: 200.0 mg/kg/injection, schedule: Q04DX003 (ip), vehicle: Klucel (hydroxypropylcellulose) (HPC) 104 % of control

Clc1ccnc(SCc2ccccc2)n1
inactive: dose: 100.0 mg/kg/injection, schedule: Q01DX Z (ip), vehicle: methylcellulose (MC) 91 % of control | dose: 200.0 mg/kg/injection, schedule: Q01DX Z (ip), vehicle: methylcellulose (MC) 104 % of control

CCOC(=O)Nc1ccc(F)cc1OC
inactive: [17] 107 % of control | [18] 104 % of control | [19] 96 % of control

CC(=O)OC(C)(/N=N/C(C)(OC(C)=O)c1ccc(Cl)cc1)c1ccc(Cl)cc1 (stereo unspecified)
inactive: dose: 25.0 mg/kg/injection, schedule: Q01DX009 (ip), vehicle: gum acacia 113 % of control | dose: 25.0 mg/kg/injection, schedule: Q04DX003 (ip), vehicle: gum acacia 98 % of control | dose: 50.0 mg/kg/injection, schedule: Q01DX009 (ip), vehicle: gum acacia 100 % of control | dose: 50.0 mg/kg/injection, schedule: Q04DX003 (ip), vehicle: gum acacia 98 % of control | dose: 100.0 mg/kg/injection, schedule: Q01DX001 (ip), vehicle: gum acacia 92 % of control | dose: 100.0 mg/kg/injection, schedule: Q01DX009 (ip), vehicle: gum acacia 94 % of control | dose: 100.0 mg/kg/injection, schedule: Q04DX003 (ip), vehicle: gum acacia 102 % of control

Cc1ccnc2c3c4c(cc12)c(C)cc(=O)n4CO3
inactive: dose: 75.0 mg/kg/injection, schedule: Q01DX001 (ip), vehicle: Klucel (hydroxypropylcellulose) (HPC) 104 % of control | dose: 150.0 mg/kg/injection, schedule: Q01DX001 (ip), vehicle: Klucel (hydroxypropylcellulose) (HPC) 95 % of control | dose: 150.0 mg/kg/injection, schedule: Q01DX009 (ip), vehicle: Klucel (hydroxypropylcellulose) (HPC) 114 % of control | dose: 300.0 mg/kg/injection, schedule: Q01DX001 (ip), vehicle: Klucel (hydroxypropylcellulose) (HPC) 98 % of control

O=C(O)c1cc(-c2ccc(N(CCCl)CCCl)cc2)nc2ccccc12
inactive: dose: 100.0 mg/kg/injection, schedule: Q01DX001 (ip), vehicle: other 104 % of control | dose: 200.0 mg/kg/injection, schedule: Q01DX001 (ip), vehicle: other 104 % of control | dose: 400.0 mg/kg/injection, schedule: Q01DX001 (ip), vehicle: other 96 % of control

CCC1(C)CC(=O)N(C/C=C(\C)CCC=C(C)C)C(=O)C1
inactive: [7] 100 % of control | [9] 105 % of control | [10] 97 % of control

CC1(C)N=C2OCCN2C1=O
inactive: dose: 12.5 mg/kg/injection, schedule: Q04DX003 (ip), vehicle: saline 101 % of control | [13] 111 % of control | [14] 93 % of control | [15] 101 % of control | [16] 98 % of control and 102 % of control | dose: 300.0 mg/kg/injection, schedule: Q04DX003 (ip), vehicle: saline 104 % of control

[N-]=[N+]=NC1=NN2NNN=C2C(N)=C1
inactive: [1] 105 % of control | [2] 107 % of control

COc1ccc(C=Nc2ccc([N+](=O)[O-])cc2O)cc1
inactive: dose: 100.0 mg/kg/injection, schedule: Q01DX001 (ip), vehicle: carboxymethylcellulose (CMC) 96 % of control | dose: 200.0 mg/kg/injection, schedule: Q01DX001 (ip), vehicle: carboxymethylcellulose (CMC) 94 % of control | dose: 400.0 mg/kg/injection, schedule: Q01DX001 (ip), vehicle: carboxymethylcellulose (CMC) 90 % of control

OC1CC2CCC1CC2 (stereo unspecified)
inactive: [11] 100 % of control | [7] 89 % of control | [12] 97 % of control | [9] 96 % of control | dose: 400.0 mg/kg/injection, schedule: Q01DX009 (ip), vehicle: saline with Tween-80 102 % of control | [10] 86 % of control

CN(C)N=Nc1cccc(C(=O)O)c1
inactive: dose: 50.0 mg/kg/injection, schedule: Q04DX002 (ip), vehicle: other 106 % of control | [17] 113 % of control | [18] 113 % of control | [19] 124 % of control

Clc1ccc2c3c(cccc13)CC2
inactive: dose: 75.0 mg/kg/injection, schedule: Q01DX001 (ip), vehicle: carboxymethylcellulose (CMC) 97 % of control | dose: 150.0 mg/kg/injection, schedule: Q01DX001 (ip), vehicle: carboxymethylcellulose (CMC) 97 % of control | dose: 300.0 mg/kg/injection, schedule: Q01DX001 (ip), vehicle: carboxymethylcellulose (CMC) 97 % of control

CCCSCC
inactive: [7] 93 % of control | [9] 91 % of control | [10] 101 % of control
